According to patent US5391540A, “Substituted pyridine compounds” (Rohm and Haas Company, priority 1993, dated 1995):

Assays:
Format in all cases: in vivo
Dobr = assay: plant injury after spraying emerged plants (Table D)
Grft = assay: as above; design: scale not given here
Procedure, shortened: (§1)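 Seeds or vegetative propagules of annual and perennial species were pressed into steam-sterilized silt loam, covered with 1.27 cm of topsoil/peat-moss/vermiculite mix, and grown on greenhouse benches with subirrigation. Injury was scored on emerged plants after spraying.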

Sobe = assay: as above; design: scale not given here
Procedure, shortened: as §1

Rice = assay: as above; design: scale not given here
Procedure, shortened: as §1

Whez = assay: as above; design: scale not given here
Procedure, shortened: as §1

Corn = assay: as above; design: scale not given here
Procedure, shortened: as §1

Mogl = assay: as above; design: scale not given here
Procedure, shortened: as §1

Grso = assay: as above; design: scale not given here
Procedure, shortened: as §1

Cobu = assay: as above; design: scale not given here
Procedure, shortened: as §1

Bygr = assay: as above; design: scale not given here
Procedure, shortened: as §1

Velvetleaf = assay: Pre-emergent herbicidal activity (Table A); settings: Abutilon theophrasti, pre-emergence, Vele, 11.2 kg/ha, 10-14 days, read-out: herbicidal rating (% inhibition)
Procedure, shortened: (§2)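 Seeds or perennial propagules set on compacted topsoil, then covered with soil mixed with a known amount of test compound applied in acetone or water carrier. Ratings assigned on a scale based on percent inhibition of each species.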

Yellow Nutsedge = assay: Pre-emergent herbicidal activity (Table A); settings: Cyperus, pre-emergence, Yens, 11.2 kg/ha, 10-14 days, read-out: herbicidal rating (% inhibition)
Procedure, shortened: as §2

Barnyardgrass = assay: Pre-emergent herbicidal activity (Table A); settings: Echinochloa crus-galli, pre-emergence, Bygr, 11.2 kg/ha, 10-14 days, read-out: herbicidal rating (% inhibition)
Procedure, shortened: as §2

Morningglory = assay: Pre-emergent herbicidal activity (Table A); settings: Ipomoea, pre-emergence, Mogl, 11.2 kg/ha, 10-14 days, read-out: herbicidal rating (% inhibition)
Procedure, shortened: as §2

Cocklebur = assay: Pre-emergent herbicidal activity (Table A); settings: Xanthium strumarium, pre-emergence, Cobu, 11.2 kg/ha, 10-14 days, read-out: herbicidal rating (% inhibition)
Procedure, shortened: as §2

Downy Brome = assay: Pre-emergent herbicidal activity (Table A); settings: Bromus tectorum, pre-emergence, Dobr, 11.2 kg/ha, 10-14 days, read-out: herbicidal rating (% inhibition)
Procedure, shortened: as §2

COC(=O)c1c(OC)nc(C(F)(F)F)c(N=CSC)c1CC(C)C [Compound 77, 3-pyridinecarboxylic acid, 2-methoxy-4-(2-methylpropyl)-5-[[(methylthio)methylene]amino]-6-(trifluoromethyl)-, methyl ester]
75 to 100%: inhibition at 11200 g/ha (Velvetleaf) | inhibition at 11200 g/ha (Yellow Nutsedge) | inhibition at 11200 g/ha (Barnyardgrass) | inhibition at 11200 g/ha (Morningglory) | inhibition at 11200 g/ha (Downy Brome)
0: plant injury rating, Dobr (Dobr; 1.1210 kg/ha) | plant injury rating, Dobr (Dobr; 2.8025 kg/ha) | plant injury rating, Dobr (Dobr; 11.2100 kg/ha) | plant injury rating, Grft (Grft; 1.1210 kg/ha) | plant injury rating, Rice (Rice; 1.1210 kg/ha) | plant injury rating, Rice (Rice; 2.8025 kg/ha) | plant injury rating, Rice (Rice; 5.6050 kg/ha) | plant injury rating, Rice (Rice; 11.2100 kg/ha) | plant injury rating, Whez (Whez; 1.1210 kg/ha) | plant injury rating, Whez (Whez; 2.8025 kg/ha) | plant injury rating, Whez (Whez; 5.6050 kg/ha) | plant injury rating, Bygr (Bygr; 1.1210 kg/ha)
3: plant injury rating, Corn (Corn; 11.2100 kg/ha) | plant injury rating, Mogl (Mogl; 11.2100 kg/ha) | plant injury rating, Cobu (Cobu; 11.2100 kg/ha) | plant injury rating, Bygr (Bygr; 11.2100 kg/ha)
1: plant injury rating, Grft (Grft; 2.8025 kg/ha) | plant injury rating, Sobe (Sobe; 1.1210 kg/ha) | plant injury rating, Sobe (Sobe; 2.8025 kg/ha) | plant injury rating, Mogl (Mogl; 1.1210 kg/ha) | plant injury rating, Grso (Grso; 2.8025 kg/ha) | plant injury rating, Grso (Grso; 11.2100 kg/ha) | plant injury rating, Cobu (Cobu; 2.8025 kg/ha)
50 to 74%: inhibition at 11200 g/ha (Cocklebur)
2: plant injury rating, Corn (Corn; 2.8025 kg/ha) | plant injury rating, Corn (Corn; 5.6050 kg/ha) | plant injury rating, Mogl (Mogl; 2.8025 kg/ha) | plant injury rating, Mogl (Mogl; 5.6050 kg/ha) | plant injury rating, Bygr (Bygr; 5.6050 kg/ha)

COC(=O)c1c(OC)nc(C(F)(F)F)c(C(=O)NCCCBr)c1CC(C)C [Compound 97, 3-pyridinecarboxylic acid, 5-[[(3-bromopropyl)amino)carbonyl]-2-methoxy-4-(2-methylpropyl)-6-(trifluoromethyl)-, methyl ester]
0: plant injury rating, Dobr (Dobr; 0.0701 kg/ha) | plant injury rating, Dobr (Dobr; 0.2803 kg/ha) | plant injury rating, Dobr (Dobr; 1.1210 kg/ha) | plant injury rating, Dobr (Dobr; 5.6050 kg/ha) | plant injury rating, Grft (Grft; 0.0701 kg/ha) | plant injury rating, Grft (Grft; 0.2803 kg/ha) | plant injury rating, Grft (Grft; 1.1210 kg/ha) | plant injury rating, Grft (Grft; 5.6050 kg/ha) | plant injury rating, Sobe (Sobe; 0.0701 kg/ha) | plant injury rating, Sobe (Sobe; 0.2803 kg/ha) | plant injury rating, Sobe (Sobe; 1.1210 kg/ha) | plant injury rating, Sobe (Sobe; 5.6050 kg/ha) | plant injury rating, Rice (Rice; 0.0701 kg/ha) | plant injury rating, Rice (Rice; 0.2803 kg/ha) | plant injury rating, Rice (Rice; 1.1210 kg/ha) | plant injury rating, Rice (Rice; 5.6050 kg/ha) | plant injury rating, Whez (Whez; 0.0701 kg/ha) | plant injury rating, Whez (Whez; 0.2803 kg/ha) | plant injury rating, Whez (Whez; 1.1210 kg/ha) | plant injury rating, Whez (Whez; 5.6050 kg/ha) | plant injury rating, Corn (Corn; 0.0701 kg/ha) | plant injury rating, Corn (Corn; 0.2803 kg/ha) | plant injury rating, Corn (Corn; 1.1210 kg/ha) | plant injury rating, Corn (Corn; 5.6050 kg/ha) | plant injury rating, Mogl (Mogl; 0.0701 kg/ha) | plant injury rating, Mogl (Mogl; 0.2803 kg/ha) | plant injury rating, Mogl (Mogl; 1.1210 kg/ha) | plant injury rating, Mogl (Mogl; 5.6050 kg/ha) | plant injury rating, Grso (Grso; 0.0701 kg/ha) | plant injury rating, Grso (Grso; 0.2803 kg/ha) | plant injury rating, Grso (Grso; 1.1210 kg/ha) | plant injury rating, Grso (Grso; 5.6050 kg/ha) | plant injury rating, Cobu (Cobu; 0.0701 kg/ha) | plant injury rating, Cobu (Cobu; 0.2803 kg/ha) | plant injury rating, Cobu (Cobu; 1.1210 kg/ha) | plant injury rating, Cobu (Cobu; 5.6050 kg/ha) | plant injury rating, Bygr (Bygr; 0.0701 kg/ha) | plant injury rating, Bygr (Bygr; 0.2803 kg/ha) | plant injury rating, Bygr (Bygr; 1.1210 kg/ha) | plant injury rating, Bygr (Bygr; 5.6050 kg/ha)
75 to 100%: inhibition at 11200 g/ha (Barnyardgrass)
0 to 24%: inhibition at 11200 g/ha (Yellow Nutsedge) | inhibition at 11200 g/ha (Cocklebur)
50 to 74%: inhibition at 11200 g/ha (Velvetleaf) | inhibition at 11200 g/ha (Morningglory) | inhibition at 11200 g/ha (Downy Brome)
